Values after ≈ are worked out from the molar mass of the structure shown. Like-named read-outs stand apart in the source and are kept apart here. Some results are limits rather than exact numbers.

Results on three molecules are retold here after PMC12221116, “Novel Quinazolinones Active against Multidrug‐Resistant Mycobacterium Tuberculosis: Synthesis, Antimicrobial Evaluation, and in Silico Exploration of Penicillin‐Binding Protein 1A as a Potential Target” (Chemmedchem, 2025).

One data set concerns Bacteria, incl. SA. The data set can be described thus: Antibacterial microdilution screening (eight strains). The class given is cell-based. The following applies: read after 24 and 48 h, highest tested concentration 500 μM. For orientation: In broth dilution the organism is exposed to a series of concentrations in liquid medium.
A further data set relates to Fungi. The data set can be described thus: Antifungal microdilution screening (eight strains). The class given is cell-based. As to conditions: read after 24 and 48 h (72 and 120 h for TI), highest tested concentration 500 μM.
Data set [1] has as its system MRC-5. The data set can be described thus: cells. The following applies: Homo sapiens.
A further data set concerns Mtb H37Rv. The data set can be described thus: Microplate Alamar Blue assay, MIC. As to conditions: Mycobacterium tuberculosis, H37RV. It counts as cell-based, Mycobacterium tuberculosis.
The test system of another data set is M. kansasii. As to the kind of experiment: Microplate Alamar Blue assay, MIC. It counts as cell-based, Mycobacterium kansasii. The following applies: Mycobacterium kansasii; read-out: Antimycobacterial Activity MIC M. kans. Background: Resazurin is reduced to fluorescent resorufin, in cell work by metabolically active cells.
Another data set concerns M. aurum. The data set can be described thus: Microdilution broth resazurin assay, MIC. It counts as cell-based, Mycolicibacterium aurum.
In data set [2] the test system is HepG2. The data set can be described thus: cells. The following applies: Homo sapiens.
The subject of another data set is MDR Mtb H37Rv. The data set can be described thus: microbe, parasite or virus in culture. It counts as cell-based. The following applies: Mycobacterium tuberculosis, read-out: MIC MDR Mtb H37Rv.
In the next data set the test system is M. smegmatis. As to the kind of experiment: Microdilution broth resazurin assay, MIC. The class given is cell-based, Mycolicibacterium smegmatis.
A further data set concerns Mtb H37Ra. As to the kind of experiment: Microdilution broth resazurin assay, MIC. The class given is cell-based, Mycobacterium tuberculosis.
The subject of a further data set is M. avium. The data set can be described thus: Microdilution broth resazurin assay, MIC. It counts as cell-based, Mycobacterium avium. The following applies: for MIC: Mycobacterium avium, read-out: Antimycobacterial Activity MIC M. avium.
The test system of data set [3] is HepG2. As to conditions: HepG2.
Data set [4] has as its system MRC-5. The following applies: MRC-5.
Setting [5] is: MRC5, 24 h, read-out: IC50 for MRC-5 [24 h].
Setting [6] is: MRC5, 72 h, read-out: IC50 for MRC-5 [72 h].
Setting [7] is: Microplate Alamar Blue assay, read-out: Antimycobacterial Activity MIC Mtb H37Rv.
The mark [8] stands for this setting: calculated from the measured MIC in mass concentration units, read-out: MIC Mtb H37Rv.
The mark [9] stands for this setting: HepG2, 24 h, read-out: IC50 for HepG2 [24 h].
The mark [10] stands for this setting: HepG2, 72 h, read-out: IC50 for HepG2 [72 h].
Where [11] appears, read: Mycolicibacterium smegmatis, read-out: Antimycobacterial Activity MIC M. smeg.
Setting [12] is: Mycobacterium tuberculosis, H37RA; calculated from the measured MIC in mass concentration units; read-out: MIC Mtb H37Ra.
[13] abbreviates: Mycolicibacterium aurum; read-out: Antimycobacterial Activity MIC M. aurum.
Where [14] appears, read: Mycobacterium tuberculosis, H37RA; read-out: Antimycobacterial Activity MIC Mtb H37Ra.

As to `COc1ccc(Cn2c(C)nc3cc(Cl)ccc3c2=O)cc1` [Compound 17], the “MIC Bacteria, incl. SA” value in the data set with Bacteria, incl. SA was “inactive”. Further, in the data set with Fungi, the “MIC Fungi” value is “inactive”. In addition, the IC50 (commonly the concentration that gives 50% inhibition) in the data set on MRC-5 [1] (setting [5]) was over 100 µM; in the data set with MRC-5 [1] (setting [6]), over 100 µM; in the data set with HepG2 [2] (setting [9]), over 50 µM; in the data set with HepG2 [2] (setting [10]), over 50 µM. Further, the MIC in the data set on Mtb H37Rv (setting [7]) is 12.5 µg/mL; in the data set on Mtb H37Rv (setting [8]) it was 40 µM; in the data set with Mtb H37Rv (read-out: Antimycobacterial Activity MIC Mtb H37Rv, Table S5 matching pairs series A and B), over 100 µg/mL; in the data set on M. kansasii, over 100 µg/mL; in the data set on M. aurum (Mycolicibacterium aurum, read-out: Antimycobacterial Activity MIC M. aurum), 15.6 µg/mL (≈ 49.6 µM); with MDR Mtb H37Rv, 40 µM (≈ 12.6 µg/mL). Further, the MIC is 31.2 µg/mL (≈ 99.3 µM) in the data set on M. smegmatis (setting [11]); 7.81 µg/mL in the data set on Mtb H37Ra (Mycobacterium tuberculosis, H37RA, read-out: Antimycobacterial Activity MIC Mtb H37Ra); 25 µM in the data set with Mtb H37Ra (setting [12]); at least 500 µg/mL in the data set with M. avium. Further, the “Antimycobacterial Activity MIC M. aurum” value in the data set with M. aurum came out at 15.625 µg/mL. Further, the “Antimycobacterial Activity MIC M. smeg.” value with M. smegmatis was 31.25 µg/mL. Further, the “Antimycobacterial Activity MIC Mtb H37Ra” value in the data set with Mtb H37Ra was 7.81 µg/mL. In the data set with M. avium (Table S5 matching pairs series A and B), the “Antimycobacterial Activity MIC M. avium” value was at least 500 µg/mL.
On to `Cc1nc2cc(Cl)ccc2c(=O)n1Cc1ccc(F)cc1` [Compound 19], for which, in the data set with Bacteria, incl. SA, the “MIC Bacteria, incl. SA” value was “inactive”. In addition, the “MIC Fungi” value in the data set on Fungi is “inactive”. Moreover, the concentration for half-maximal inhibition (IC50) in the data set with MRC-5 [1] (setting [5]) is over 100 µM; with MRC-5 [1] (setting [6]), over 100 µM; with HepG2 [2] (setting [9]), over 50 µM; with HepG2 [2] (setting [10]), over 50 µM. For the same molecule, the MIC was 25 µg/mL in the data set on Mtb H37Rv (setting [7]); 83 µM with Mtb H37Rv (setting [8]); over 100 µg/mL in the data set with M. kansasii; 31.2 µg/mL (≈ 103 µM) in the data set on M. aurum (setting [13]); 41 to 165 µM (≈ 12.4 to 50 µg/mL) with MDR Mtb H37Rv; 31.2 µg/mL (≈ 103 µM) with M. smegmatis (Mycolicibacterium smegmatis; read-out: Antimycobacterial Activity MIC M. smeg.). Moreover, the MIC with Mtb H37Ra (setting [12]) is 26 µM; in the data set on Mtb H37Ra (setting [14]), 7.81 µg/mL; in the data set with M. avium, 15.6 µg/mL (≈ 51.6 µM).
As for `Cc1nc2cc(Cl)ccc2c(=O)n1/N=C/c1ccc(O)c([N+](=O)[O-])c1` [Compound 25], the “MIC Bacteria, incl. SA” value in the data set with Bacteria, incl. SA is “inactive”. Also, the “MIC Fungi” value against Fungi was “inactive”. Besides, the IC50 with MRC-5 [1] (setting [5]) and in the data set on HepG2 [2] (setting [9]) was over 1000 µM in each case. For the same molecule, the MIC in the data set on Mtb H37Rv (setting [7]) is 12.5 µg/mL; in the data set with Mtb H37Rv (setting [8]), 35 µM; in the data set with M. kansasii it was over 100 µg/mL; in the data set on M. aurum (setting [13]), at least 62.5 µg/mL; in the data set with MDR Mtb H37Rv it was 17 to 70 µM (≈ 6.1 to 25.1 µg/mL); in the data set with M. smegmatis (setting [11]), 31.2 µg/mL (≈ 87.1 µM). For the same molecule, the MIC is 87 µM in the data set with Mtb H37Ra (setting [12]), 31.2 µg/mL in the data set with Mtb H37Ra (setting [14]) and 62.5 µg/mL (≈ 174 µM) in the data set with M. avium. Further, the “nontoxic for human cell lines up to” value in the data set with HepG2 [3] and in the data set with MRC-5 [4] was “up to 1000 μM” each time.
